Reference: patent US20190364896A1, “SYNERGISTIC WEED CONTROL FROM APPLICATIONS OF PYRIDINE CARBOXYLIC ACID HERBICIDES AND ALS INHIBITORS” (Dow AgroSciences LLC, priority 2014, published 2019)
Where “and” joins values, the source holds several entries; their conditions need not be identical. Equal entries are not always repeated. Where two headings read alike, the source gives them in different places.

Legend:
Assay in all cases: Postemergence herbicidal activity, greenhouse trial (visual injury 0-100%)
Assay type in all cases: in vivo
[1] = test system: poinsettia (Euphorbia heterophylla, EPHHL); conditions: for % visual injury Obs: EPHHL
Procedure, shortened: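 Greenhouse-grown plants at the second to third true leaf stage were sprayed with two-way mixtures in 1.5% v/v Agri-dex crop oil concentrate at 187 L/ha; rates in g ae/ha for component (a) and g ai/ha for component (b). Injury scored visually 0–100% versus solvent-blank controls after 20–22 d, with expected mixture effects from Colby's equation.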

[2] = test system: common lambsquarters (Chenopodium album L., CHEAL); conditions: Chenopodium album, post-emergence, read-out: % visual injury Obs
Procedure, shortened: (§1)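 Herbicide mixtures (an EC-formulated compound plus a partner herbicide) are sprayed at 187 L/ha on greenhouse plants at the second or third true leaf stage, with rates in g ae/ha for (a) and g ai/ha for (b).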

[3] = test system: chickweed (Stellaria media, STEME); conditions: Stellaria media, post-emergence, read-out: % visual injury Obs
Procedure, shortened: as §1

[4] = test system: wild oat (Avena fatua, AVEFA)
Procedure, shortened: as §1

[5] = test system: ivyleaf morning-glory (Ipomoea hederacea, IPOHE); conditions: Ipomoea hederacea, post-emergence, read-out: % visual injury Obs
Procedure, shortened: as §1

[6] = test system: barnyardgrass (Echinochloa crus-galli, ECHCG); conditions: Echinochloa crus-galli, post-emergence, read-out: % visual injury Obs
Procedure, shortened: as §1

[7] = test system: winter rape (Brassica napus, BRSNW)
[8] = test system: large crabgrass (Digitaria sanguinalis, DIGSA)

For `Nc1c(F)c(-c2ccc3cc[nH]c3c2F)nc(C(=O)O)c1Cl` [Compound 1], the “% visual injury Obs” value ([1]; Compound 1 5 g ae/ha) was 97%, the “% visual injury Obs” value ([1]; Compound 1 10 g ae/ha) was 97% and the pest or weed control at 5 g/ha ([1]; Euphorbia heterophylla, post-emergence, 5 g ae/ha, read-out: % visual injury Obs) was 97%. It also gave a pest or weed control at 10 g/ha ([1]; Euphorbia heterophylla, post-emergence, 10 g ae/ha, read-out: % visual injury Obs) of 97%, a pest or weed control at 5 g/ha ([2]; 5 g ae/ha) of 80% and a pest or weed control at 10 g/ha ([2]; 10 g ae/ha) of 100%. The pest or weed control at 5 g/ha ([2]; CHEAL, Compound 1 5 g ae/ha) was 90%, the pest or weed control at 10 g/ha ([2]; CHEAL, Compound 1 10 g ae/ha) was 100% and the pest or weed control at 5 g/ha ([3]; 5 g ae/ha) was 50%. The pest or weed control at 10 g/ha ([3]; 10 g ae/ha) was 70%, the pest or weed control at 5 g/ha ([3]; STEME, Compound 1 5 g ae/ha) was 70% and the pest or weed control at 10 g/ha ([3]; STEME, Compound 1 10 g ae/ha) was 70%. For the same molecule, the “% visual injury Obs” value ([4]; 5 g ae/ha) was 0%, the “% visual injury Obs” value ([4]; 10 g ae/ha) was 0% and the pest or weed control at 10 g/ha ([5]; 10 g ae/ha) was 10%. It also gave a pest or weed control at 10 g/ha ([5]; IPOHE, Compound 1 10 g ae/ha) of 10%, a pest or weed control at 10 g/ha ([6]; 10 g ae/ha) of 60% and a pest or weed control at 5 g/ha ([6]; ECHCG, Compound 1 5 g ae/ha) of 50%. For the same molecule, the “% visual injury Obs” value ([7]; 5 g ae/ha) was 30% and 40%, the “% visual injury Obs” value ([7]; 10 g ae/ha) was 45% and the “% visual injury Obs” value ([7]; BRSNW, Compound 1 5 g ae/ha) was 50% and 40%. For the same molecule, the “% visual injury Obs” value ([7]; BRSNW, Compound 1 10 g ae/ha) was 45%, the “% visual injury Obs” value ([8]; 5 g ae/ha) was 5% and 0% and the “% visual injury Obs” value ([8]; 10 g ae/ha) was 10%.
In the case of `CCCOc1nn(C(=O)NS(=O)(=O)c2ccccc2C(=O)OC)c(=O)n1C` [Propoxycarbazone, propoxycarbazone], the pest or weed control at […] ([2]; 7.5 g ai/ha) is reported as 30%, the pest or weed control at […] ([3]; 7.5 g ai/ha) is reported as 50% and the “% visual injury Obs” value ([4]; 7.5 g ai/ha) is reported as 85%. It also gave a pest or weed control at […] ([5]; 7.5 g ai/ha) of 95% and a pest or weed control at […] ([6]; 7.5 g ai/ha) of 95%.
